Tests used:
MDA-MB-468 = experiment: NCI screening panel, MDA-MB-468 (Breast Cancer); format: cell-based, human
Protocol: (§1) Representative compounds of Formula I were screened using the National Cancer Institute (NCI) screening panel, which consists of a panel of human tumor cell lines, representing leukemia, melanoma, and cancers of the lung, colon, ovary, breast, prostate and renal system.
(§2) After 24 h, two plates of each cell line are fixed in situ with TCA, to represent a measurement of the cell population for each cell line at the time of drug addition (Tz). Experimental drugs are solubilised in dimethyl sulfoxide at 400-fold the desired final maximum test concentration and stored frozen prior to use. At the time of drug addition, an aliquot of frozen concentrate is thawed and diluted to twice the desired final maximum test concentration with complete medium containing 50 μg/mL gentamicin. Additional four, 10-fold or ½ log serial dilutions are made to provide a total of five drug concentrations plus control. Aliquots of 100 μl of these different drug dilutions are added to the appropriate microtiter wells already containing 100 μl of medium, resulting in the required final drug concentrations.
(§3) Following drug addition, the plates are incubated for an additional 48 h at 37° C., 5% CO2, 95% air, and 100% relative humidity. For adherent cells, the assay is terminated by the addition of cold TCA (trichloroacetic acid). Cells are fixed in situ by the gentle addition of 50 μl of cold 50% (w/v) TCA (final concentration, 10% TCA) and incubated for 60 minutes at 4° C. The supernatant is discarded, and the plates are washed five times with tap water and air dried. Sulforhodamine B (SRB) solution (100 μl) at 0.4% (w/v) in 1% acetic acid is added to each well, and plates are incubated for 10 minutes at room temperature. After staining, unbound dye is removed by washing five times with 1% acetic acid and the plates are air dried. Bound stain is subsequently solubilised with 10 mM trizma base, and the absorbance is read on an automated plate reader at a wavelength of 515 nm. For suspension cells, the methodology is the same except that the assay is terminated by fixing settled cells at the bottom of the wells by gently adding 50 μl of 80% TCA (final concentration, 16% TCA). Using the seven absorbance measurements [time zero, (Tz), control growth, (C), and test growth in the presence of drug at the five concentration levels (Ti)], the percentage growth is calculated at each of the drug concentrations levels. Percentage growth inhibition is calculated as: [(Ti−Tz)/(C−Tz)]×100 for concentrations for which Ti>/=Tz and [(Ti−Tz)/Tz]×100 for concentrations for which Ti<Tz.
(§4) Three dose response parameters are calculated for each experimental agent. Growth inhibition of 50% (GI50) is calculated from [(Ti−Tz)/(C−Tz)]×100=50, which is the drug concentration resulting in a 50% reduction in the net protein increase (as measured by SRB staining) in control cells during the drug incubation. The drug concentration resulting in total growth inhibition (TGI) is calculated from Ti=Tz. The LC50 (concentration of drug resulting in a 50% reduction in the measured protein at the end of the drug treatment as compared to that at the beginning) indicating a net loss of cells following treatment is calculated from [(Ti−Tz)/Tz]×100=−50. Values are calculated for each of these three parameters if the level of activity is reached. However, if the effect is not reached or is exceeded, the value for that parameter is expressed as greater or less than the maximum or minimum concentration tested.

K-562 = experiment: NCI screening panel, K-562 (Leukemia); format: cell-based, human
Protocol: as §1, §2, §3, §4

SK-MEL-28 = experiment: NCI screening panel, SK-MEL-28 (Melanoma); format: cell-based, human
Protocol: as §1, §2, §3, §4

OCI-AML-2 = experiment: Cell viability (MTS) assay, OCI-AML-2; format: cell-based; conditions: Homo sapiens, OCI-AML2; OCI-AML-2, MTS, 72 hours, mean ± standard deviation
Protocol: Human multiple myeloma cell lines 8226, H929, JJN3, KMH11, KMS11, KMS18, LP1, MM1S, OPM2 and U266 were grown in Iscove modified Dulbecco's medium (IMDM). Human leukemia cell lines K562, OCI-AML2 and U937 were cultured in RPMI-1640 medium. Primary peripheral blood mononuclear cells were isolated from multiple myeloma patients by Ficoll density gradient centrifugation and bone marrow aspirates were obtained from multiple myeloma patients at the Princess Margaret Cancer Centre of the University Health Network (UHN; Toronto, ON, Canada). Primary cells were cultured in IMDM. The collection and use of human tissue for this study was approved by the UHN institutional ethics review board. All cell culture media were obtained from the Ontario Cancer Institute Tissue Culture Media Facility (Toronto, ON, Canada) and were supplemented with 10% fetal calf serum, […] (Hyclone, Logan, Utah). All cells were grown in a humidified incubator at 37° C. with 5% CO2.
Cellular viability was primarily assessed by 3-(4,5-dimethylthiazol-2-yl)-5-(3-carboxymethoxyphenyl)-2-(4-sulfophenyl)-2H-tetrazolium (MTS) assay according to the manufacturer's instructions (Promega; Madison, Wis.). Cells were first seeded at a density of 10,000 cells per well in tissue culture-treated 96-well plates. Two hours after seeding, cells were treated with compounds for 72 hours at concentrations as indicated. As a control, cells were treated with DMSO alone in every assay plate. Following treatment and the MTS assay, cell viability was independently confirmed by reading the optical density (O.D.) at 490 nm and by exclusion of trypan blue stain (Invitrogen; Burlington, ON, Canada). The viability of primary mononuclear cells was determined by staining with Annexin V.
Table 8 summarizes the data of representative compounds of Formula I for cell viability and CT-L proteasome activity with OCI-AML-2 and KMS-11 cell lines.

IGROV1 = experiment: NCI screening panel, IGROV1 (Ovarian Cancer); format: cell-based, human
Protocol: as §1, §2, §3, §4

SR = experiment: NCI screening panel, SR (Leukemia); format: cell-based, human
Protocol: as §1, §2, §3, §4

HOP-62 = experiment: NCI screening panel, HOP-62 (Non-Small Cell Lung Cancer); format: cell-based, human
Protocol: as §1, §2, §3, §4

BT-549 = experiment: NCI screening panel, BT-549 (Breast Cancer); format: cell-based, human
Protocol: as §1, §2, §3, §4

MDA-MB-231/ATCC = experiment: NCI screening panel, MDA-MB-231/ATCC (Breast Cancer); format: cell-based, human
Protocol: as §1, §2, §3, §4

A549/ATCC = experiment: NCI screening panel, A549/ATCC (Non-Small Cell Lung Cancer); format: cell-based, human
Protocol: as §1, §2, §3, §4

## CC(C)C[C@H](NC(=O)[C@H](COC(F)F)NC(=O)[C@H](COC(F)F)NC(=O)[C@H](COC(F)F)NC(=O)CN1CCOCC1)C(=O)[C@@]1(C)CO1 [Example 17, (2S)-3-(difluoromethoxy)-N-[(1S)-1-(difluoromethoxymethyl)-2-[[(1S)-1-(difluoro-methoxymethyl)-2-[[(1S)-3-methyl-1-[(2R)-2-methyloxirane-2-carbonyl]butyl]amino]-2-oxo-ethyl]amino]-2-oxo-ethyl]-2-[(2-mor-pholinoacetyl)amino]-propanamide]
MDA-MB-468
  Log10GI50: −7.04
  Log10LC50: >−4.00
  Log10TGI50: −6.17
K-562
  Log10GI50: −6.77
  Log10TGI50: >−4.00
SK-MEL-28
  Log10GI50: −6.97
  Log10LC50: >−4.00
  Log10TGI50: −5.69
OCI-AML-2
  IC50: 136 ± 36.8 nM
IGROV1
  Log10GI50: −6.87
  Log10LC50: >−4.00
  Log10TGI50: −5.82
SR
  Log10GI50: −7.27
  Log10TGI50: >−4.00
HOP-62
  Log10GI50: −6.82
  Log10LC50: >−4.00
  Log10TGI50: >−4.00
BT-549
  Log10GI50: −7.11
  Log10LC50: >−4.00
  Log10TGI50: −6.43
MDA-MB-231/ATCC
  Log10GI50: −6.87
  Log10LC50: −4.25
  Log10TGI50: −6.10
A549/ATCC
  Log10GI50: −6.99
  Log10LC50: >−4.00
  Log10TGI50: −5.06

## CC(C)C[C@H](NC(=O)[C@H](COC(F)F)NC(=O)CN1CCOCC1)C(=O)N[C@@H](COC(F)F)C(=O)N[C@@H](Cc1ccccc1)C(=O)[C@@]1(C)CO1 [Example 4, (2S)-N-[(1S)-2-[[(1S)-1-benzyl-2-[(2R)-2-methyloxiran-2-yl]-2-oxo-ethyl]amino]-1-(difluoromethoxymethyl)-2-oxo-ethyl]-2-[[(2S)-3-(difluoromethoxy)-2-[(2-mor-pholinoacetyl)amino]propanoyl]amino]-4 methyl-pentanamide]
MDA-MB-468
  Log10GI50: −7.35
  Log10LC50: >−4.00
  Log10TGI50: −6.37
K-562
  Log10GI50: −7.26
  Log10LC50: >−4.00
  Log10TGI50: >−4.00
SK-MEL-28
  Log10GI50: −7.35
  Log10LC50: −4.79
  Log10TGI50: −6.62
OCI-AML-2
  IC50: 54.7 ± 10.8 nM
IGROV1
  Log10GI50: −7.33
  Log10LC50: >−4.00
  Log10TGI50: −5.57
SR
  Log10GI50: −7.66
  Log10LC50: >−4.00
  Log10TGI50: >−4.00
HOP-62
  Log10GI50: −7.65
  Log10LC50: >−4.00
  Log10TGI50: −6.98
BT-549
  Log10GI50: −7.64
  Log10TGI50: −6.91
MDA-MB-231/ATCC
  Log10GI50: −7.45
  Log10LC50: −4.14
  Log10TGI50: −6.37
A549/ATCC
  Log10GI50: −7.38
  Log10LC50: >−4.00
  Log10TGI50: −4.55

## CC(C)C[C@H](NC(=O)[C@H](Cc1ccccc1)NC(=O)[C@H](COC(F)F)NC(=O)[C@H](COC(F)F)NC(=O)CN1CCOCC1)C(=O)[C@@]1(C)CO1 [Example 11, (2S)-2-[[(2S)-3-(difluoromethoxy)-2-[[(2S)-3-(difluoromethoxy)-2-[(2-morpholinoacetyl)-amino]propanoyl]amino]propanoyl]amino]-N-[(1S)-3-methyl-1-[(2R)-2-methyloxirane-2-carbonyl]butyl]-3-phenyl-propanamide]
MDA-MB-468
  Log10GI50: −7.62
  Log10LC50: −4.67
  Log10TGI50: −7.06
K-562
  Log10GI50: −7.36
  Log10LC50: >−4.00
  Log10TGI50: >−4.00
SK-MEL-28
  Log10GI50: −7.20
  Log10LC50: >−4.00
  Log10TGI50: −5.55
OCI-AML-2
  IC50: 15.7 ± 3.56 nM
IGROV1
  Log10GI50: −7.38
  Log10LC50: >−4.00
  Log10TGI50: −4.36
SR
  Log10GI50: −7.82
  Log10LC50: >−4.00
  Log10TGI50: >−4.00
HOP-62
  Log10GI50: −7.56
  Log10LC50: >−4.00
  Log10TGI50: −4.94
BT-549
  Log10GI50: −7.76
  Log10LC50: >−4.00
  Log10TGI50: −7.06
MDA-MB-231/ATCC
  Log10GI50: −7.56
  Log10LC50: −4.39
  Log10TGI50: −6.94
A549/ATCC
  Log10GI50: −7.40
  Log10TGI50: >−4.00

Source: patent publication US20150218212A1, “FLUORINATED EPOXYKETONE-BASED TETRAPEPTIDE COMPOUNDS AND USES THEREOF AS PROTEASOME INHIBITORS” (FLUORINOV PHARMA INC., priority 2012, published 2015)
